Like-named read-outs stand apart in the source and are kept apart here.
Key:
Candida albicans KE-2 [1] = experiment: Inhibition test against pseudomycelium formation of Candida albicans; format: cell-based; conditions: KE2, minimum effective concentration preventing typical pseudomycelium formation, Eagle-MEM + 20 % calf serum, 18 hours at 37 °C, read-out: Inhibitory Concentration of Pseudo-myselium Formation
Description: Candida albicans KE-2 was inoculated to Eagle-MEM medium (Nissan 2 made by Nissui Seiyaku, Ltd.) supplemented with 20 % calf serum so that its final inoculum of yeast cell might be 1 x 10^6 yeast cells per milliliter. The test compounds were added thereon in two fold dilution series. After incubation for 18 hours at 37 °C, the fungal growth in each drug concentration was smeared and fixed on a slide glass, and the presence or absence of the pseudomycelium formation was examined by a microscope following Giemsa staining. Minimum effective concentration was defined as the lowest concentration of the compound which prevented typical pseudomycelium formation.

Sphaerotheca fuliginea [2] = experiment: Control of cucumber powdery mildew by foliar spray; format: in vivo; conditions: observed 10 days after inoculation; for Control Index Preventive Effect: inoculation 24 hr. after application; for Control Index Curative Effect: inoculation 24 hr. before application
Description: The test compound was dissolved in a small amount of acetone and suspended in demineralized distilled water containing a spreader, to a concentration of 7.8 ppm and 2.0 ppm. Young cucumber plants (c.v. Tsukuba-Shiroibo) of 2-leaf stage grown in pots were sprayed sufficiently with the suspension.
Spores of Sphaerotheca fuliginea cultured in cucumber plants were collected and suspended in distilled water. Inoculation was made by spraying with the spore suspension to the test plant of 24 hr. after application of the test compound (preventive control) or 24 hr. before application (curative control).
Development of the disease was observed 10 days after inoculation and control index was obtained as described in Experiment 3.

Rhizoctonia solani = experiment: Control by seed-soaking: Rhizoctonia damping-off in cucumber; format: in vivo; conditions: 360 h, read-out: Control Index Rhizoctonia Damping-Off in Cucumber
Description: (§1) The test compound was dissolved in 0.2 ml of acetone and suspended in demineralized distilled water containing a small amount of spreader, to a concentration of 500 ppm. The suspension was further diluted to one quarter dilution with demineralized distilled water (containing a small amount of spreader) to give a suspension in 125 ppm. All seeds of oats, wheat and cucumber were soaked in these suspensions at room temperature for an hour and then the seeds were air-dried.
(§2) The seeds as described above were sown in plastic pots (diameter : 9 cm). For rust and powdery mildews, the pots were kept in a glasshouse for 1 - 3 weeks until the seeds grew to young plants. The young oats (10 - 20 plants per pot) were inoculated by dusting with spores of Puccinia coronata, and the wheat (10 - 20 plants per pot) was also inoculated by spraying with spores of Erysiphe graminis f. sp. tritici, and the cucumber (1 plant per pot) was also inoculated by spraying with spore suspension of Sphaerotheca fuliginea. These inoculated plants were further kept in a glasshouse for 10 - 14 days until assessment. For damping-off, the treated seeds were sown in paper pots (diameter : 7.5 cm; depth : 6 cm) which contained soil infested with Rhizoctonia solani by mixing sterilized soil and pre-cultured fungus. Then the pots were kept in a humid glasshouse at 25 - 32 ^*C.
(§3) Damping-off was observed 15 days after sowing, and disease degree and control effect were obtained from the following equations. [formula] [formula] where diseased seedlings included damping-off and unemerged'seeds due to infection. For the foliar diseases, disease development was observed 10 - 14 days after inoculation of spores, and control effect was obtained by the following index.

Candida albicans KE-2 [3] = experiment: Therapeutic effect against experimental candidiasis in mice; format: in vivo; conditions: KE2, po, 120 h, mouse survival ratio on the 5th day after infection, Jcl-ICR female mouse, 50 mg/kg orally three times (0, 4, 24 hours)
Description: After Candida albicans KE-2 was incubated on Sabouraud's glucose agar at 28 °C for 48 hr., it was suspended in Sabouraud's glucose broth and the cells ([…]) were injected to a tail vein of Jcl-ICR female mouse (4 weeks age; weight : 18 - 20 g). A suspension of the test compound in 2 % gum arabic was orally administered three times, immediately after infection of the yeast ( 0 hour), after 4 hours and after 24 hours, as a dosage of 50 mg/kg. Non-treated group was used as control. Each eight mice per group was used in control group and treated group. All the mice in control group died within 48 hr. after infection. Therapeutic effect of the test compound was judged by mouse survival ratio on the 5th day after infection.

Sphaerotheca fuliginea [4] = experiment: Control by seed-soaking: powdery mildew in cucumber; format: in vivo
Description: as §1, §2, §3

Puccinia coronata = experiment: Control by seed-soaking: crown rust in oats; format: in vivo
Description: as §1, §2, §3

[5] = test system: Erysiphe graminis f. sp. tritici; experiment: Control by seed-soaking: powdery mildew in wheat; format: in vivo
Description: as §1, §2, §3

[6] = seed-soaking, 125 ppm, observed 15 days after sowing, control effect by equation
[7] = seed-soaking, 500 ppm, observed 15 days after sowing, control effect by equation

Cc1onc(C(O)(Cn2cncn2)c2ccc(Cl)cc2)c1Cl (stereo not shown) [Ib - 1, 1-(4-Chlorophenyl)-1-(5-methyl-4-chloroisoxazol-3-yl)-2-(1H-1,2,4-triazol-1-yl)ethanol]
minimal effective concentration (Candida albicans KE-2 [1]): 0.31 µg/mL
Control Index Preventive Effect (Sphaerotheca fuliginea [2]; foliar spray 2.0 ppm): 70 (Leaves covered with symptom between 16 % and 45 % area)
Control Index Curative Effect (Sphaerotheca fuliginea [2]; foliar spray 2.0 ppm): 97 (Leaves covered with symptom less than 3 % area)
Control Index Preventive Effect (Sphaerotheca fuliginea [2]; foliar spray 7.8 ppm): 97 (Leaves covered with symptom less than 3 % area)
Control Index Curative Effect (Sphaerotheca fuliginea [2]; foliar spray 7.8 ppm): 100
pest or weed control at 125 ppm (Rhizoctonia solani; [6]): 35%
pest or weed control at 500 ppm (Rhizoctonia solani; [7]): 88%

CCc1cc(C(O)(Cn2cncn2)c2ccc(F)cc2F)no1 (stereo not shown) [Ia - 10]
minimal effective concentration (Candida albicans KE-2 [1]): 0.08 µg/mL
responders at 50 mg/kg (Candida albicans KE-2 [3]): 50%

CC(C)(C)C(=O)C(Oc1ccc(Cl)cc1)n1cncn1 (stereo not shown) [Triadi-mefon, reference compound]
Control Index Powdery Mildew in Cucumber (Sphaerotheca fuliginea [4]; 125 ppm): 0 (Leaves covered with symptom more than 66 %)
Control Index Powdery Mildew in Cucumber (Sphaerotheca fuliginea [4]; 500 ppm): 70 (Leaves covered with symptom between 16 % and 45 % area)
Control Index Crown Rust in Oats (Puccinia coronata; 125 ppm): 50 (Leaves covered with symptom between 46 % and 65 % area)
Control Index Crown Rust in Oats (Puccinia coronata; 500 ppm): 97 (Leaves covered with symptom less than 3 % area)
Control Index Preventive Effect (Sphaerotheca fuliginea [2]; foliar spray 2.0 ppm): 90 (Leaves covered with symptom between 4 % and 15 % area)
Control Index Curative Effect (Sphaerotheca fuliginea [2]; foliar spray 2.0 ppm): 90 (Leaves covered with symptom between 4 % and 15 % area)
Control Index Preventive Effect (Sphaerotheca fuliginea [2]; foliar spray 7.8 ppm): 90 (Leaves covered with symptom between 4 % and 15 % area)
Control Index Curative Effect (Sphaerotheca fuliginea [2]; foliar spray 7.8 ppm): 90 (Leaves covered with symptom between 4 % and 15 % area)
pest or weed control at 125 ppm (Rhizoctonia solani): 34%
pest or weed control at 500 ppm (Rhizoctonia solani): 49%
Control Index Powdery Mildew in Wheat ([5]; 125 ppm): 90 (Leaves covered with symptom between 4 % and 15 % area)
Control Index Powdery Mildew in Wheat ([5]; 500 ppm): 100

Cc1cc(C(O)(Cn2ccnc2)c2ccc(F)cc2)no1 (stereo not shown) [Ia - 13, 1-(4-Fluorophenyl)-1-(5-methylisoxazol-3-yl)-2-(1H-imidazol-1-yl)ethanol]
minimal effective concentration (Candida albicans KE-2 [1]): 0.63 µg/mL

CCCCc1cc(C(O)(Cn2cncn2)c2ccc(F)cc2F)no1 (stereo not shown) [Ia - 11]
minimal effective concentration (Candida albicans KE-2 [1]): 0.04 µg/mL
responders at 50 mg/kg (Candida albicans KE-2 [3]): 50%

Cc1cc(C(O)(Cn2cncn2)c2ccc(Cl)cc2)no1 (stereo not shown) [Ia - 5]
minimal effective concentration (Candida albicans KE-2 [1]): 0.02 µg/mL
responders at 50 mg/kg (Candida albicans KE-2 [3]): 87.5%
Control Index Powdery Mildew in Cucumber (Sphaerotheca fuliginea [4]; 125 ppm): 0 (Leaves covered with symptom more than 66 %)
Control Index Powdery Mildew in Cucumber (Sphaerotheca fuliginea [4]; 500 ppm): 70 (Leaves covered with symptom between 16 % and 45 % area)
Control Index Crown Rust in Oats (Puccinia coronata; 125 ppm): 50 (Leaves covered with symptom between 46 % and 65 % area)
Control Index Crown Rust in Oats (Puccinia coronata; 500 ppm): 97 (Leaves covered with symptom less than 3 % area)
Control Index Preventive Effect (Sphaerotheca fuliginea [2]; foliar spray 2.0 ppm): 70 (Leaves covered with symptom between 16 % and 45 % area)
Control Index Curative Effect (Sphaerotheca fuliginea [2]; foliar spray 2.0 ppm): 97 (Leaves covered with symptom less than 3 % area)
Control Index Preventive Effect (Sphaerotheca fuliginea [2]; foliar spray 7.8 ppm): 97 (Leaves covered with symptom less than 3 % area)
Control Index Curative Effect (Sphaerotheca fuliginea [2]; foliar spray 7.8 ppm): 100
pest or weed control at 125 ppm (Rhizoctonia solani; [6]): 66%
pest or weed control at 500 ppm (Rhizoctonia solani; [7]): 94%
Control Index Powdery Mildew in Wheat ([5]; 125 ppm): 70 (Leaves covered with symptom between 16 % and 45 % area)
Control Index Powdery Mildew in Wheat ([5]; 500 ppm): 100

Cc1onc(C(O)(Cn2cncn2)c2ccccc2)c1Cl (stereo not shown) [Ib - 3]
minimal effective concentration (Candida albicans KE-2 [1]): 1.25 µg/mL

Cc1cc(C(O)(Cn2cncn2)c2ccc(F)cc2F)no1 (stereo not shown) [Ia - 8]
minimal effective concentration (Candida albicans KE-2 [1]): 0.08 µg/mL
responders at 50 mg/kg (Candida albicans KE-2 [3]): 50%
Control Index Preventive Effect (Sphaerotheca fuliginea [2]; foliar spray 2.0 ppm): 90 (Leaves covered with symptom between 4 % and 15 % area)
Control Index Curative Effect (Sphaerotheca fuliginea [2]; foliar spray 2.0 ppm): 90 (Leaves covered with symptom between 4 % and 15 % area)
Control Index Preventive Effect (Sphaerotheca fuliginea [2]; foliar spray 7.8 ppm): 97 (Leaves covered with symptom less than 3 % area)
Control Index Curative Effect (Sphaerotheca fuliginea [2]; foliar spray 7.8 ppm): 100
pest or weed control at 125 ppm (Rhizoctonia solani; [6]): 74%
pest or weed control at 500 ppm (Rhizoctonia solani; [7]): 94%

Cc1cc(C(O)(Cn2cncn2)c2ccc(Cl)cc2Cl)no1 (stereo not shown) [Ia - 7]
minimal effective concentration (Candida albicans KE-2 [1]): 0.02 µg/mL
Control Index Crown Rust in Oats (Puccinia coronata; 125 ppm): 70 (Leaves covered with symptom between 16 % and 45 % area)
Control Index Crown Rust in Oats (Puccinia coronata; 500 ppm): 100
Control Index Preventive Effect (Sphaerotheca fuliginea [2]; foliar spray 2.0 ppm): 90 (Leaves covered with symptom between 4 % and 15 % area)
Control Index Curative Effect (Sphaerotheca fuliginea [2]; foliar spray 2.0 ppm): 97 (Leaves covered with symptom less than 3 % area)
Control Index Preventive Effect (Sphaerotheca fuliginea [2]; foliar spray 7.8 ppm): 100
Control Index Curative Effect (Sphaerotheca fuliginea [2]; foliar spray 7.8 ppm): 100
pest or weed control at 125 ppm (Rhizoctonia solani; [6]): 92%
pest or weed control at 500 ppm (Rhizoctonia solani; [7]): 94%
Control Index Powdery Mildew in Wheat ([5]; 125 ppm): 70 (Leaves covered with symptom between 16 % and 45 % area)
Control Index Powdery Mildew in Wheat ([5]; 500 ppm): 70 (Leaves covered with symptom between 16 % and 45 % area)

Cc1onc(C(O)(Cn2cncn2)c2ccc(F)cc2)c1Cl (stereo not shown) [Ib - 2]
minimal effective concentration (Candida albicans KE-2 [1]): 1.25 µg/mL
pest or weed control at 125 ppm (Rhizoctonia solani; [6]): 60%
pest or weed control at 500 ppm (Rhizoctonia solani; [7]): 85%

OC(Cn1cncn1)(c1ccc(F)cc1)c1ccon1 (stereo not drawn) [Ia - 1, 1-(4-Fluorophenyl)-1-(isoxazol-3-yl)-2-(1H-1,2,4-triazol-l-yl)ethanol]
minimal effective concentration (Candida albicans KE-2 [1]): 0.31 µg/mL
responders at 50 mg/kg (Candida albicans KE-2 [3]): 87.5%
Control Index Powdery Mildew in Cucumber (Sphaerotheca fuliginea [4]; 125 ppm): 0 (Leaves covered with symptom more than 66 %)
Control Index Powdery Mildew in Cucumber (Sphaerotheca fuliginea [4]; 500 ppm): 70 (Leaves covered with symptom between 16 % and 45 % area)
Control Index Crown Rust in Oats (Puccinia coronata; 125 ppm): 50 (Leaves covered with symptom between 46 % and 65 % area)
Control Index Crown Rust in Oats (Puccinia coronata; 500 ppm): 90 (Leaves covered with symptom between 4 % and 15 % area)
pest or weed control at 125 ppm (Rhizoctonia solani; [6]): 71%
pest or weed control at 500 ppm (Rhizoctonia solani; [7]): 90%
Control Index Powdery Mildew in Wheat ([5]; 125 ppm): 70 (Leaves covered with symptom between 16 % and 45 % area)
Control Index Powdery Mildew in Wheat ([5]; 500 ppm): 100

Cc1cc(C(O)(Cn2cncn2)c2ccc(F)cc2)no1 (stereo not shown) [Ia - 6]
minimal effective concentration (Candida albicans KE-2 [1]): 0.16 µg/mL
pest or weed control at 125 ppm (Rhizoctonia solani; [6]): 54%
pest or weed control at 500 ppm (Rhizoctonia solani; [7]): 85%

CC(C)(C)c1cc(C(O)(Cn2cncn2)c2ccc(F)cc2F)no1 (stereo not shown) [Ia - 12]
minimal effective concentration (Candida albicans KE-2 [1]): 0.31 µg/mL

Cc1cc(C(O)(Cn2cncn2)c2ccccc2)no1 (stereo not shown) [Ia - 9]
minimal effective concentration (Candida albicans KE-2 [1]): 0.31 µg/mL

Source: patent publication EP0241232A1, “Isoxazolylethanol derivatives” (SHIONOGI SEIYAKU KABUSHIKI KAISHA, priority 1986, dated 1987)
